Assay results published in PMC10709440, “High-throughput ligand profile characterization in novel cell lines expressing seven heterologous insect olfactory receptors for the detection of volatile plant biomarkers” (Scientific Reports, 2023).

How the values were obtained:
[1] = biological target: T1, Drosophila OR47a (Drosophila melanogaster, UniProt P81921); experiment: Calcium ion fluorescence (GCaMP6) assay, OR47a stable HEK293 cell line; type: cell-based; design: key to DF norm AVERAGE OR47a: VOC ∆F divided by the plate's mean ∆F response to 50 µM VUAA1; conditions: for OR47a response (VUAA1-normalized) at 1 μM / OR47a response (VUAA1-normalized) at 10 μM / OR47a response (VUAA1-normalized) at 100 μM / Average response: OR47a cell line; for Average response: mean of biological replicates; for OR47a Average response (VUAA1-normalized): 50 μM VUAA1 = 1
T1 construct: expressed in transfected cells
T1 sequence (P81921 1-385): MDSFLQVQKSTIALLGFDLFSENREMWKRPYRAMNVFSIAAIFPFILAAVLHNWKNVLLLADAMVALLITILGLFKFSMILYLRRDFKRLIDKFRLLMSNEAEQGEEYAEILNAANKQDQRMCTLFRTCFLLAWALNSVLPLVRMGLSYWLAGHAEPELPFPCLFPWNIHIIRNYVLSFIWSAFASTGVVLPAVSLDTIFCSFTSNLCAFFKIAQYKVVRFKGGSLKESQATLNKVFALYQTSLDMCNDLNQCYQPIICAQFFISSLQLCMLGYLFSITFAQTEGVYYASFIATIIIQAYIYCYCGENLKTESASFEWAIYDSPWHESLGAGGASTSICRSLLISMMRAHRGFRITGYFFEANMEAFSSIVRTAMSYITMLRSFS
T1 sequence (Q9VNB5 1-486 partner): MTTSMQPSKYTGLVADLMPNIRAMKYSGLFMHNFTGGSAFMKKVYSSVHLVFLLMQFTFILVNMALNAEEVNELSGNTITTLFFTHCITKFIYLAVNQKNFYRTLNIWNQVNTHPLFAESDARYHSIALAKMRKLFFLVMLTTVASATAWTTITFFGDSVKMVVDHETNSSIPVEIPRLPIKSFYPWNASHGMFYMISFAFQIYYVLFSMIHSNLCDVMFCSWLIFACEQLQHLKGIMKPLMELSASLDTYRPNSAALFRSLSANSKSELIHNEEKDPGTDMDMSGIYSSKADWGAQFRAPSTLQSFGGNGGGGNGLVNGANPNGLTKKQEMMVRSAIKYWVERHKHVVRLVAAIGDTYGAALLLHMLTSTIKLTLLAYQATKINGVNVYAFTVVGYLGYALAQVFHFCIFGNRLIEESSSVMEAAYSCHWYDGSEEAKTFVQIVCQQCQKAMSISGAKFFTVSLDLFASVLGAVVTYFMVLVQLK
How it was run: (§1)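 Responses are VUAA1-normalized ΔF: each VOC-evoked calcium signal, (FMAX−F0)/F0 over 30 s after injection, divided by the same line's mean 50 µM VUAA1 response. Cells were doxycycline-induced HEK293 with GCaMP6 and the cognate Drosophila OR, in HEPES buffer pH 7.3; ligands tested 0.01–100 μM.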

[2] = biological target: T2, Drosophila OR85b (Drosophila melanogaster, UniProt Q9VHQ7); experiment: Calcium ion fluorescence (GCaMP6) assay, OR85b stable HEK293 cell line; type: cell-based; design: key to DF norm AVERAGE OR85b: VOC ∆F divided by the plate's mean ∆F response to 50 µM VUAA1; conditions: for OR85b response (VUAA1-normalized) at 1 μM / OR85b response (VUAA1-normalized) at 10 μM / OR85b response (VUAA1-normalized) at 100 μM / Average response: OR85b cell line; for Average response: VUAA1-normalized response, mean of biological replicates
T2 construct: expressed in transfected cells
T2 sequence (Q9VHQ7 1-390): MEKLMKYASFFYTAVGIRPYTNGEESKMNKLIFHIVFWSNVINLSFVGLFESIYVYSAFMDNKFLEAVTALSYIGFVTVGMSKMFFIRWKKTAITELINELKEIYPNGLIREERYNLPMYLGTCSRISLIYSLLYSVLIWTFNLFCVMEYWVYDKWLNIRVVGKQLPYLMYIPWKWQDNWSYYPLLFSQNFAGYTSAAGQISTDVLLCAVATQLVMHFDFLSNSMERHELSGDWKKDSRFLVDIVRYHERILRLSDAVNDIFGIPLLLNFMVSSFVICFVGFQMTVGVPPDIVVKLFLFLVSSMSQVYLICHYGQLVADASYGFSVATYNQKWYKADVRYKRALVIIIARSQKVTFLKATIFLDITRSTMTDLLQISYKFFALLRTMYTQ
T2 sequence (Q9VNB5 1-486 partner): T1 sequence (Q9VNB5 1-486 partner)
How it was run: as §1

[3] = ligand concentration 1 (unit not given), threshold 0.05, below shown as 0
[4] = ligand concentration 10 (unit not given), threshold 0.05, below shown as 0
[5] = ligand concentration 100 (unit not given), threshold 0.05, below shown as 0
[6] = HEK293, read-out: OR47a response (VUAA1-normalized response)
[7] = HEK293, read-out: OR85b response (VUAA1-normalized response)
[8] = ligand concentration 1 (unit not given), 0.05 threshold, values below shown as 0
[9] = ligand concentration 10 (unit not given), 0.05 threshold, values below shown as 0
[10] = ligand concentration 100 (unit not given), 0.05 threshold, values below shown as 0

Row | Structure (SMILES) | OR47a response (VUAA1-normalized) at 1 μM ([1]; VOC concentration 1 μM) | OR47a response (VUAA1-normalized) at 10 μM ([1]; VOC concentration 10 μM) | OR47a response (VUAA1-normalized) at 100 μM ([1]; VOC concentration 100 μM) | Average response ([1]; odorant cc. 1 µM) | Average response ([1]; odorant cc. 10 µM) | Average response ([1]; odorant cc. 100 µM) | DF norm AVERAGE OR47a [1, 3] | DF norm AVERAGE OR47a [1, 4] | DF norm AVERAGE OR47a [1, 5] | OR85b response (VUAA1-normalized) at 1 μM ([2]; VOC concentration 1 μM) | OR85b response (VUAA1-normalized) at 10 μM ([2]; VOC concentration 10 μM) | OR85b response (VUAA1-normalized) at 100 μM ([2]; VOC concentration 100 μM) | Average response ([2]; cc. 1 µM) | Average response ([2]; cc. 10 µM) | Average response ([2]; cc. 100 µM) | DF norm AVERAGE OR85b [2, 3] | DF norm AVERAGE OR85b [2, 4] | DF norm AVERAGE OR85b [2, 5] | OR47a Average response (VUAA1-normalized) ([1]; 1 μM VOC) | OR47a Average response (VUAA1-normalized) ([1]; 10 μM VOC) | other results
1 | C=CC(C)(O)CCC=C(C)C (stereo not drawn) [linalool] | 0.00 | 0.00 | 0.00 | 0.00 | 0.0374 | 0.00 | 0 | 0 | 0 | 0.00 | 0.00 | 0.06 | 0.045 | 0.00 | 0.06 | 0 | 0 | 0.06299 | – | – | –
2 | CC/C=C/CCO [e3-hexenol] | – | – | – | 0.06 | 0.00 | 0.14 | 0.06256 | 0 | 0.1396 | – | – | – | 0.00 | 0.00 | 0.0284 | 0 | 0 | 0 | 0.06 | 0.00 | OR47a Average response (VUAA1-normalized) ([1]; 100 μM VOC): 0.14
3 | CC/C=C\CCO [E-3-hexenol] | – | – | – | – | – | – | – | – | – | – | – | – | – | – | – | – | – | – | – | – | OR47a response (VUAA1-normalized response) ([1]; VOC concentration 1 μM): 0.06; OR47a response (VUAA1-normalized response) ([1]; VOC concentration 10 μM): 0.00; OR47a response (VUAA1-normalized response) ([1]; VOC concentration 100 μM): 0.14; OR85b response (VUAA1-normalized response) ([2]; VOC concentration 1 μM): 0.00; OR85b response (VUAA1-normalized response) ([2]; VOC concentration 10 μM): 0.00; OR85b response (VUAA1-normalized response) ([2]; VOC concentration 100 μM): 0.00
4 | CCc1ccccc1 [ethylbenzene] | – | – | – | 0.0189 | 0.0233 | 0.00 | 0 | 0 | 0 | – | – | – | 0.00719 | 0.00 | 0.00 | 0 | 0 | 0 | – | – | activation at 1 µM [1, 6]: 0%; activation at 10 µM [1, 6]: 0%; activation at 100 µM [1, 6]: 0%; activation at 1 µM [2, 7]: 0%; activation at 10 µM [2, 7]: 0%; activation at 100 µM [2, 7]: 0%
5 | OCCc1ccccc1 [phenethyl alcohol] | 0.0564 | 0.0644 | 0.057 | 0.0564 | 0.0644 | 0.057 | 0.05643 | 0.06438 | 0.05701 | 0.10 | 0.0758 | 0.00 | 0.10 | 0.0758 | 0.04 | 0.09884 | 0.07579 | 0 | – | – | –
6 | CC/C=C\CCO [Z3-hexenol] | – | – | – | 0.0266 | 0.0571 | 0.10 | – | – | – | – | – | – | 0.0533 | 0.0426 | 0.00 | – | – | – | 0.03 | 0.06 | OR47a Average response (VUAA1-normalized) ([1]; 100 μM VOC): 0.10; DF norm AVERAGE OR47a [1, 8]: 0; DF norm AVERAGE OR47a [1, 9]: 0.0571; DF norm AVERAGE OR47a [1, 10]: 0.1005; DF norm AVERAGE OR85b [2, 8]: 0.05333; DF norm AVERAGE OR85b [2, 9]: 0; DF norm AVERAGE OR85b [2, 10]: 0
